In US20160122320A1, “USEFUL COMBINATIONS OF MONOBACTAM ANTIBIOTICS WITH BETA-LACTAMASE INHIBITORS” (Basilea Pharmaceutica AG, priority 2005, published 2016):

Assays:
Experiment in all cases: MIC, NCCLS broth microdilution
Format in all cases: cell-based
[1] = system: Serratia marcescens S6
[2] = system: Stenotrophomonas malthophilia 1AC736; details: Stenotrophomonas maltophilia 1AC736
[3] = system: Pseudomonas aeruginosa 1973E; details: for MIC of antibiotic: antibiotic alone, no inhibitor
Outline: (§1)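 NCCLS M7-A5 microdilution; DMSO ≤1% final; overnight, 30° C. or 37° C.; visual read. MIC = lowest conc. with no visible growth. Combos: formula I titrated, partners fixed at 4 μg/mL each.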

[4] = system: Klebsiella pneumoniae CF104
[5] = system: Pseudomonas aeruginosa MK1184
[6] = system: Enterobacter aerogenes B1
[7] = system: Enterobacter aerogenes Zayakosky
[8] = system: Acinetobacter sp. J2; details: Acinetobacter baumannii J2
[9] = system: Acinetobacter baumannii J51
Outline: as §1

[10] = system: Enterobacter cloacae P99
[11] = with clavulanate (clavulanic acid)

C[C@H]1[C@H](NC(=O)/C(=N\OC(C)(C)C(=O)O)c2csc(N)n2)C(=O)N1S(=O)(=O)O [Aztreonam, aztreonam, reference compound]
0.5 µg/mL: MIC of antibiotic at fixed inhibitor concentration of 4 mg/L ([4]; with 102 and clavulanate)
8 µg/mL: MIC of antibiotic at fixed inhibitor concentration of 4 mg/L ([2]; with 102 and sulbactam) | MIC of antibiotic [3] | MIC of antibiotic at fixed inhibitor concentration of 4 mg/L ([3]; with 102 and clavulanate)
2 µg/mL: MIC of antibiotic at fixed inhibitor concentration of 4 mg/L ([1]; with 102 and clavulanate) | MIC of antibiotic at fixed inhibitor concentration of 4 mg/L ([1]; with 102 and sulbactam)
16 µg/mL: MIC of antibiotic at fixed inhibitor concentration of 4 mg/L ([5]; with 102 and sulbactam) | MIC of antibiotic at fixed inhibitor concentration of 4 mg/L ([8]; with 102 and clavulanate)
4 µg/mL: MIC of antibiotic at fixed inhibitor concentration of 4 mg/L ([2]; with 102 and clavulanate) | MIC of antibiotic at fixed inhibitor concentration of 4 mg/L ([3]; with 102 and sulbactam) | MIC of antibiotic at fixed inhibitor concentration of 4 mg/L ([8]; with 102 and sulbactam)
8 mg/L: Minimal Inhibitory Concentration of antibiotic at fixed inhibitor concentration of 4 mg/L ([6]; + compound 206 4 mg/L) | Minimal Inhibitory Concentration of antibiotic at fixed inhibitor concentration of 4 mg/L ([6]; + compound 323 and sulbactam, 4 mg/L each) | Minimal Inhibitory Concentration of antibiotic at fixed inhibitor concentration of 4 mg/L ([7]; Enterobacter aerogenes Zayakosky, + compound 323 and sulbactam, 4 mg/L each)
1 µg/mL: MIC of antibiotic at fixed inhibitor concentration of 4 mg/L ([4]; with 102 and sulbactam)

CC1(C)[C@H](NC(=O)/C(=N\OCc2cc(=O)c(O)cn2O)c2csc(N)n2)C(=O)N1OS(=O)(=O)O [Compound 26, (3S)-3-{(2Z)-2-(2-amino(1,3-thiazol-4-yl))-3-[(1,5-dihydroxy-4-oxo(2-hydropyridyl))methoxy]-3-azaprop-2-enoylamino}-4,4-dimethyl-2-oxoazetidinyl hydroxysulfonate]
1 µg/mL: MIC of antibiotic at fixed inhibitor concentration of 4 mg/L ([9]; with 501) | MIC of antibiotic at fixed inhibitor concentration of 4 mg/L ([9]; with clavulanic acid) | MIC of antibiotic at fixed inhibitor concentration of 4 mg/L ([4]; with 102 and sulbactam) | MIC of antibiotic at fixed inhibitor concentration of 4 mg/L ([4]; with 324 and sulbactam) | MIC of antibiotic at fixed inhibitor concentration of 4 mg/L ([4]; with 501) | MIC of antibiotic at fixed inhibitor concentration of 4 mg/L ([4]; with sulbactam) | MIC of antibiotic at fixed inhibitor concentration of 4 mg/L ([4]; with tazobactam) | MIC of antibiotic at fixed inhibitor concentration of 4 mg/L ([10]; with 102 only) | MIC of antibiotic at fixed inhibitor concentration of 4 mg/L ([10]; with 324 and clavulanate)
32 µg/mL: MIC of antibiotic at fixed inhibitor concentration of 4 mg/L ([9]; with BRL427158) | MIC of antibiotic ([4]; antibiotic alone, no inhibitor)
≦0.06 mg/L: MIC of antibiotic at fixed inhibitor concentration of 4 mg/L ([1]; with 102 and clavulanate) | MIC of antibiotic at fixed inhibitor concentration of 4 mg/L ([1]; with 102 only) | MIC of antibiotic at fixed inhibitor concentration of 4 mg/L ([1]; with 324 only) | MIC of antibiotic at fixed inhibitor concentration of 4 mg/L ([1]; with 501) | MIC of antibiotic at fixed inhibitor concentration of 4 mg/L ([1]; with BRL427158) | MIC of antibiotic at fixed inhibitor concentration of 4 mg/L [1, 11] | MIC of antibiotic at fixed inhibitor concentration of 4 mg/L ([1]; with sulbactam) | MIC of antibiotic at fixed inhibitor concentration of 4 mg/L ([1]; with tazobactam) | MIC of antibiotic at fixed inhibitor concentration of 4 mg/L [2, 11] | MIC of antibiotic at fixed inhibitor concentration of 4 mg/L ([2]; with sulbactam) | MIC of antibiotic at fixed inhibitor concentration of 4 mg/L ([2]; with tazobactam)
2 µg/mL: MIC of antibiotic at fixed inhibitor concentration of 4 mg/L ([3]; with 102 and clavulanate) | MIC of antibiotic at fixed inhibitor concentration of 4 mg/L ([3]; with 102 only) | MIC of antibiotic at fixed inhibitor concentration of 4 mg/L ([3]; with 324 and clavulanate) | MIC of antibiotic at fixed inhibitor concentration of 4 mg/L ([3]; with 324 and sulbactam) | MIC of antibiotic at fixed inhibitor concentration of 4 mg/L ([3]; with 501) | MIC of antibiotic at fixed inhibitor concentration of 4 mg/L ([3]; with BRL427158) | MIC of antibiotic at fixed inhibitor concentration of 4 mg/L [3, 11] | MIC of antibiotic at fixed inhibitor concentration of 4 mg/L ([3]; with sulbactam) | MIC of antibiotic at fixed inhibitor concentration of 4 mg/L ([3]; with tazobactam) | MIC of antibiotic at fixed inhibitor concentration of 4 mg/L ([9]; with 102 only) | MIC of antibiotic at fixed inhibitor concentration of 4 mg/L ([9]; with 324 and clavulanate) | MIC of antibiotic at fixed inhibitor concentration of 4 mg/L ([9]; with 324 only) | MIC of antibiotic at fixed inhibitor concentration of 4 mg/L ([9]; with sulbactam) | MIC of antibiotic ([5]; antibiotic alone, no inhibitor) | MIC of antibiotic at fixed inhibitor concentration of 4 mg/L ([5]; with 102 and clavulanate) | MIC of antibiotic at fixed inhibitor concentration of 4 mg/L ([5]; with 102 and sulbactam) | MIC of antibiotic at fixed inhibitor concentration of 4 mg/L ([5]; with 102 only) | MIC of antibiotic at fixed inhibitor concentration of 4 mg/L ([5]; with 324 and clavulanate) | MIC of antibiotic at fixed inhibitor concentration of 4 mg/L ([5]; with 324 and sulbactam) | MIC of antibiotic at fixed inhibitor concentration of 4 mg/L ([5]; with 501) | MIC of antibiotic at fixed inhibitor concentration of 4 mg/L ([5]; with BRL427158) | MIC of antibiotic at fixed inhibitor concentration of 4 mg/L ([10]; with 102 and clavulanate) | MIC of antibiotic at fixed inhibitor concentration of 4 mg/L ([10]; with 102 and sulbactam) | MIC of antibiotic at fixed inhibitor concentration of 4 mg/L ([10]; with 324 and sulbactam) | MIC of antibiotic at fixed inhibitor concentration of 4 mg/L ([10]; with 324 only) | MIC of antibiotic at fixed inhibitor concentration of 4 mg/L ([10]; with 501) | MIC of antibiotic at fixed inhibitor concentration of 4 mg/L ([10]; with BRL427158) | MIC of antibiotic at fixed inhibitor concentration of 4 mg/L ([8]; with 102 and sulbactam) | MIC of antibiotic at fixed inhibitor concentration of 4 mg/L ([8]; with 324 and sulbactam) | MIC of antibiotic at fixed inhibitor concentration of 4 mg/L ([8]; with sulbactam)
<0.06 µg/mL: MIC of antibiotic ([1]; antibiotic alone, no inhibitor) | MIC of antibiotic at fixed inhibitor concentration of 4 mg/L ([1]; with 102 and sulbactam) | MIC of antibiotic at fixed inhibitor concentration of 4 mg/L ([1]; with 324 and clavulanate) | MIC of antibiotic at fixed inhibitor concentration of 4 mg/L ([1]; with 324 and sulbactam) | MIC of antibiotic ([2]; antibiotic alone, no inhibitor)
0.25 µg/mL: MIC of antibiotic at fixed inhibitor concentration of 4 mg/L ([2]; with 102 and clavulanate) | MIC of antibiotic at fixed inhibitor concentration of 4 mg/L ([2]; with 102 and sulbactam) | MIC of antibiotic at fixed inhibitor concentration of 4 mg/L ([2]; with 102 only) | MIC of antibiotic at fixed inhibitor concentration of 4 mg/L ([2]; with 324 and clavulanate) | MIC of antibiotic at fixed inhibitor concentration of 4 mg/L ([2]; with 324 and sulbactam) | MIC of antibiotic at fixed inhibitor concentration of 4 mg/L ([2]; with 324 only) | MIC of antibiotic at fixed inhibitor concentration of 4 mg/L ([4]; with 102 and clavulanate) | MIC of antibiotic at fixed inhibitor concentration of 4 mg/L ([4]; with 324 and clavulanate)
>32 µg/mL: MIC of antibiotic at fixed inhibitor concentration of 4 mg/L [8, 11]
8 µg/mL: MIC of antibiotic at fixed inhibitor concentration of 4 mg/L [10, 11] | MIC of antibiotic at fixed inhibitor concentration of 4 mg/L ([10]; with sulbactam) | MIC of antibiotic at fixed inhibitor concentration of 4 mg/L ([7]; Enterobacter aerogenes Zayakosky 5, with 102 only) | MIC of antibiotic at fixed inhibitor concentration of 4 mg/L ([7]; Enterobacter aerogenes Zayakosky 5, with clavulanic acid)
0.125 µg/mL: MIC of antibiotic at fixed inhibitor concentration of 4 mg/L ([2]; with 501) | MIC of antibiotic at fixed inhibitor concentration of 4 mg/L ([2]; with BRL427158) | MIC of antibiotic at fixed inhibitor concentration of 4 mg/L ([4]; with BRL427158)
0.5 µg/mL: MIC of antibiotic at fixed inhibitor concentration of 4 mg/L [4, 11] | MIC of antibiotic at fixed inhibitor concentration of 4 mg/L ([7]; Enterobacter aerogenes Zayakosky 5, with BRL427158) | MIC of antibiotic at fixed inhibitor concentration of 4 mg/L ([8]; with 501) | MIC of antibiotic at fixed inhibitor concentration of 4 mg/L ([8]; with BRL427158)
4 µg/mL: MIC of antibiotic at fixed inhibitor concentration of 4 mg/L ([3]; with 102 and sulbactam) | MIC of antibiotic at fixed inhibitor concentration of 4 mg/L ([3]; with 324 only) | MIC of antibiotic ([9]; antibiotic alone, no inhibitor) | MIC of antibiotic at fixed inhibitor concentration of 4 mg/L ([9]; with 102 and clavulanate) | MIC of antibiotic at fixed inhibitor concentration of 4 mg/L ([9]; with tazobactam) | MIC of antibiotic at fixed inhibitor concentration of 4 mg/L ([5]; with 324 only) | MIC of antibiotic at fixed inhibitor concentration of 4 mg/L [5, 11] | MIC of antibiotic at fixed inhibitor concentration of 4 mg/L ([5]; with sulbactam) | MIC of antibiotic at fixed inhibitor concentration of 4 mg/L ([5]; with tazobactam) | MIC of antibiotic at fixed inhibitor concentration of 4 mg/L ([7]; Enterobacter aerogenes Zayakosky 5, with 102 and clavulanate) | MIC of antibiotic at fixed inhibitor concentration of 4 mg/L ([7]; Enterobacter aerogenes Zayakosky 5, with 324 and clavulanate) | MIC of antibiotic at fixed inhibitor concentration of 4 mg/L ([7]; Enterobacter aerogenes Zayakosky 5, with 324 only) | MIC of antibiotic ([8]; antibiotic alone, no inhibitor) | MIC of antibiotic at fixed inhibitor concentration of 4 mg/L ([8]; with 102 and clavulanate) | MIC of antibiotic at fixed inhibitor concentration of 4 mg/L ([8]; with 102 only) | MIC of antibiotic at fixed inhibitor concentration of 4 mg/L ([8]; with 324 and clavulanate) | MIC of antibiotic at fixed inhibitor concentration of 4 mg/L ([8]; with 324 only) | MIC of antibiotic at fixed inhibitor concentration of 4 mg/L ([8]; with tazobactam)
16 µg/mL: MIC of antibiotic [3] | MIC of antibiotic at fixed inhibitor concentration of 4 mg/L ([4]; with 102 only) | MIC of antibiotic at fixed inhibitor concentration of 4 mg/L ([4]; with 324 only) | MIC of antibiotic ([10]; antibiotic alone, no inhibitor) | MIC of antibiotic at fixed inhibitor concentration of 4 mg/L ([10]; with tazobactam) | MIC of antibiotic ([7]; Enterobacter aerogenes Zayakosky 5, antibiotic alone, no inhibitor) | MIC of antibiotic at fixed inhibitor concentration of 4 mg/L ([7]; Enterobacter aerogenes Zayakosky 5, with 501) | MIC of antibiotic at fixed inhibitor concentration of 4 mg/L ([7]; Enterobacter aerogenes Zayakosky 5, with sulbactam) | MIC of antibiotic at fixed inhibitor concentration of 4 mg/L ([7]; Enterobacter aerogenes Zayakosky 5, with tazobactam)
